Assay results taken from patent publication US20060172964A1, “Methods for reducing amyloid beta levels” (priority 2005, published 2006).

Tests used:
Assay type in all cases: cell-based, human
[1] = system: APP-FL, APP-C99 and APP-C83; test: Western blot analysis of APP processing in H4-APP-FL cells; settings: for protein levels of APP-FL / increase in the ratio of APP-C99 to APP-FL / increase in the ratio of APP-C83 to APP-FL: siRNA 48 hours, DAPT 250 nM
Experimental: (§1) We employed naïve H4 human neuroglioma (H4) cells and H4 cells stably-transfected to express either the APP-FL, or APP-C99. Peptide APP-C99 is the product of β-secretase, which, therefore, contains α- and γ-, but not β-cleavage sites. This cell line provides a valid system to assess whether any effects on APP processing is dependent on γ-secretase-mediated APP processing and independent of β-secretase-mediated APP processing. All cell lines were cultured in DMEM (high glucose) containing 9% heat-inactivated fetal calf serum, 100 units/ml penicillin, 100 μg/ml streptomycin, and 2 mM L-glutamine. Stably transfected H4 cells were additionally supplemented with 200 μg/ml G418.
Small interfering RNA (siRNA) duplexes were designed and obtained from Dharmacon Research, Inc. (Lafayette, CO 80026) against human APBA1, the gene encoding X11α (5′-GGATGCTCAGCTGATTGCA-3′; SEQ ID NO:2), APBA2, the gene encoding X11β (5′-GGTGAAGCTCAACATTGTC-3′; SEQ ID NO:3). Scrambled siRNA (5′-[…]-3α; SEQ ID NO:4) (29) was used as the control siRNA. siRNAs were transfected into cells by using electroporation (AMAXA, Gaithersburg, Md.). We mixed 1 million cells, 100 μl AMAXA electroporation transfection solution and 10 μl 20 μM siRNA together, then we employed C-9 program in the AMAXA electroporation device for the cell transfection. The transfected cells then were placed in one of the six-well plate containing 1.5 ml cell culture media. The cells were harvested 48 hours after siRNA treatments. DAPT (250 nM, 18 hours treatment time), a γ-secretase inhibitor, was employed in the experiments as a positive control.
(§2) Cell pellets were detergent-extracted on ice using immunoprecipitation buffer (10 mM Tris-HCl, pH 7.4, 150 mM NaCl, 2 mM EDTA, 0.5% Nonidet P-40) plus protease inhibitors (1 μg/ml aprotinin, 1 μg/ml leupeptin, 1 μg/ml pepstatin A). The lysates were collected, centrifuged at 12,000 rpm for 10 min, and quantified for total proteins by the BCA protein assay kit (Pierce, Rockford, Ill.).
Western blot analysis was performed as described by Xie et al. (30). Briefly, 40 μg of total protein of each sample was subjected to SDS-polyacrylamide gel electrophoresis using 4-20% gradient Tris/glycine gels under reducing conditions (Invitrogen, Carlsbad, Calif.). Next, proteins were transferred to a polyvinylidene difluoride membrane (Bio-Rad, Hercules, Calif.) using a semi-dry electrotransfer system (Amersham Biosciences, San Francisco, Calif.). Nonspecific proteins were blocked using 5% non-fat dry milk in TBST for 1.5 h. Blots were then incubated with a primary antibody, followed by a secondary antibody (horseradish peroxidase-conjugated anti-rabbit antibody 1:10,000; Pierce, Rockford, Ill.). Blots were washed with 1× TBST for 30 min between steps. Antibody H-265 (1:200, Santa Cruz Biotechnology, Santa Cruz, Calif.) was used to recognize X11α (105 kDa), antibody N-20 (1:100, Santa Cruz Biotechnology, Santa Cruz, Calif.) was used to detect X11β (135 kDa). Antibody A8717 (1:1,000, Sigma, St. Louis, Mo.) was used to visualize APP-FL (110 kDa), […] in the Western blot analysis. The intensity of signals was analyzed using an image program (NIH Image 1.62). We quantified the Western blots as follows. We used the levels of β-actin to normalize the levels of X11α, X11β, APP-FL and APP-CTF (i.e., determining the ratio of X11α amount to β-actin amount) to control for loading differences in total protein amounts. We present the changes in the protein levels of X11α, X11β, APP-FL, APP-C99 and APP-C83 in the cells treated with APBA1 or APBA2 siRNA as the percentage of those in the cells treated with control siRNA.
We next assessed the effects of RNAi-mediated silencing of APBA1 on APP processing in H4-APP-FL cells by measuring protein levels of APP-FL, APP-C99 and APP-C83 following APBA1 siRNA treatment. […]

[2] = system: Aβ40; test: Sandwich ELISA of secreted Aβ in conditioned media of H4-APP-FL cells
Experimental: as §1
Small interfering RNA (siRNA) duplexes were designed and obtained from Dharmacon Research, Inc. (Lafayette, CO 80026) against human APBA1, the gene encoding X11α (5′-GGATGCTCAGCTGATTGCA-3′; SEQ ID NO:2), APBA2, the gene encoding X11β (5′-GGTGAAGCTCAACATTGTC-3′; SEQ ID NO:3). Scrambled siRNA (5′-[…]-3α; SEQ ID NO:4) (29) was used as the control siRNA. siRNAs were transfected into cells by using electroporation (AMAXA, Gaithersburg, Md.). […]
(§3) Following the treatment with saline, electroporation, control siRNA, APBA1 siRNA or APBA2 siRNA, conditioned media was collected, and secreted Aβ was measured by a Sandwich ELISA assay as described by Xie et al. (30). […] Plates were then developed with TMB reagent and well absorbance measured at 450 nm. Aβ levels in test samples were determined by comparison with signal from unconditioned media spiked with known quantities of Aβ40 and Aβ42.
Next, we measured Aβ levels in the conditioned media, 48 hours after treatment with control siRNA, APBA1 siRNA or γ-secretase inhibitor DAPT. Since Aβ42 was too low to be detected in many samples, we only present the changes in Aβ40 production from these experiments.
Next, we measured Aβ levels in the conditioned media 48 hours following treatments with control siRNA, APBA2 siRNA or γ-secretase inhibitor DAPT.

[3] = system: APP-FL, APP-C99 and APP-C83; test: Western blot analysis of APP processing in H4-APP-C99 cells; settings: data not shown
Experimental: as §1, with “G418. […]” for “G418.”
as §2
Western blot analysis was performed as described by Xie et al. (30). […] The intensity of signals was analyzed using an image program (NIH Image 1.62). We quantified the Western blots as follows. […]
We next assessed the effects of RNAi-mediated silencing of APBA1 on processing of APP-C99. […]

[4] = system: Aβ40; test: Sandwich ELISA of secreted Aβ in conditioned media of H4-APP-C99 cells; settings: data not shown
Experimental: as §1, with “G418. […]” for “G418.”
as §3
We next measured Aβ levels in the conditioned media 48 hours after treatment with either control siRNA or APBA1 siRNA in the H4-APP-C99 cells. […]

Compound	protein levels of APP-FL ([1]; APBA1 experiment (FIG. 1A), vs control siRNA)	protein levels of APP-FL ([1]; APBA2 experiment (FIG. 2A), vs control siRNA)	increase in the ratio of APP-C99 to APP-FL ([1]; APBA2 experiment, FIG. 2C, vs control treatment) [%]	increase in the ratio of APP-C83 to APP-FL ([1]; APBA2 experiment, FIG. 2D, vs control treatment) [%]	increase in the ratio of APP-C99 to APP-FL ([1]; FIG. 1C, vs control siRNA, normalized to β-actin) [%]	increase in the ratio of APP-C83 to APP-FL ([1]; FIG. 1D, vs control siRNA, normalized to β-actin) [%]	Aβ levels (Aβ40) in conditioned media ([2]; FIG. 1E, 48 hours after treatment, control siRNA treatment 116 pg/ml) [pg/mL]	Aβ production (Aβ40) in conditioned media ([2]; FIG. 2E, 48 hours following treatment, control siRNA 109 pg/ml) [pg/mL]	effect on APP processing as compared to saline treatment ([1]; data not shown)	effect on Aβ levels as compared to saline treatment ([2]; data not shown)	effect on APP processing as compared to saline treatment [3]	effect on Aβ levels as compared to saline treatment [4]
C[C@H](NC(=O)Cc1cc(F)cc(F)c1)C(=O)N[C@H](C(=O)OC(C)(C)C)c1ccccc1 [DAPT]	no significant differences	no significant difference	270	245	310	250	70	48				
control siRNA: Scrambled siRNA (5′-AAATGTGTGTACGTCTCCTCC-3; SEQ ID NO:4) used as the control siRNA (listed as DNA, chemistry not given here)									did not affect APP processing or alter Aβ levels	did not affect APP processing or alter Aβ levels	did not affect APP processing or alter Aβ levels	did not affect APP processing or alter Aβ levels
